Measurements as given in patent US20070264243A1, “REVERSIBLY IMMORTALIZED HEPATOCYTES AND METHODS OF USE” (priority 1999, published 2007).
“Also recorded” adds a separate entry of the source.

Experiments:
NKNT-3 cells = experiment: MTT cytotoxicity assay; assay type: cell-based, human
Protocol: MTT Cytotoxicity Assays. Sensitivity of NKNT-3 cells to either 5 μM ganciclovir or G418 (500 μg/ml) was confirmed by 3-(4,5-dimethyl-2-thiazolyl)-2,5-diphenyl 2H-tetrazolium bromide (MTT) cytotoxicity assays. NKNT-3 cells were plated in a 96-well microplate at 5×10^3 cells per well to obtain a growth curve. On days 1, 3, 5, and 7, MTT (20 μg/ml) was added to a different well, incubated for 4 h, and then reacted with 150 μl of isopropanol for 10 min. Relative percentage of viability was determined by the ratio of absorbance at 570 and 630 nm with Bio-Rad EIA reader (Bio-Rad, Richmond, Calif.).

C8-B/Ras cells = experiment: Soft agar assay, sensitivity of colonies to gancyclovir; assay type: cell-based, rat
Protocol: Soft agar assay. To assay the capacity for anchorage independent growth, 5×10^4 cells were suspended in 2 ml of 0.3% Difco agar in IM and gently overlaid onto 60 mm dishes containing a lower layer of 0.5% agar. Cultures were fed every 5 to 7 days with a small amount of media. After 20 days of growth at 37° C., the dishes were stained with 0.5 mg/ml p-iodonitrotetrazolium violet (Sigma Chemical Co., St. Louis, Mo.), and macroscopically visible colonies (>100 μm in diameter) were scored. HepG2 cells were used as a positive control.

tumors in SCID mice = experiment: Tumor sensitivity to gancyclovir in tumor-bearing SCID mice; assay type: in vivo, mouse
Protocol: SCID mouse studies. The tumorigenicity of cell lines was assayed by subcutaneous injection of cells into the flanks of immunodeficient (SCID) mice. Cells were dislodged from monolayer culture with trypsin, washed, and suspended in PBS. SCID mice were inoculated subcutaneously with 1×10^6 cells per site. Animals were monitored every third day for the development of growth at the sites of injection. Animals were sacrificed at 24 weeks or when tumors reached 1 to 2 cm in diameter. Tumors were processed for routine histology and immunohistochemistry. To determine tumor sensitivity to treatment with gancyclovir, some animals were given a 0.2 ml intraperitoneal injection of gancyclovir (50 mg/kg) daily for 14 days when tumors reached 1-1.2 cm in size.

Compound	sensitivity of NKNT-3 cells to G418 (NKNT-3 cells; G418 500 μg/ml)	rare three-dimensional colonies after Ad-Cre infection, sensitivity to gancyclovir (C8-B/Ras cells; C8-B/Ras cells after Ad-Cre infection)	C8-B/Ras soft agar colonies, sensitivity to gancyclovir (C8-B/Ras cells; media containing 5 μM gancyclovir)	tumor recurrence (tumors in SCID mice; 4-week post-gancyclovir observation period)	tumor response by the end of gancyclovir treatment (tumors in SCID mice; gancyclovir 50 mg/kg, 14-day course)	time until tumors stopped growing (tumors in SCID mice; gancyclovir 50 mg/kg, 14-day course, tumors >1 cm)	sensitivity of NKNT-3 cells to ganciclovir (NKNT-3 cells; 5 μM ganciclovir)
CN[C@@H]1[C@@H](O)[C@@H](O[C@@H]2[C@@H](O)[C@H](O[C@H]3O[C@H]([C@@H](C)O)[C@@H](O)[C@H](O)[C@H]3N)[C@@H](N)C[C@H]2N)OC[C@]1(C)O [G418]	confirmed						
Nc1nc(O)c2ncn(COC(CO)CO)c2n1 [gancyclovir]		all were sensitive	could be eliminated	no tumor recurrence	could no longer be identified clinically or histologically; also recorded: complete regression of established tumors	≤ 5 days	confirmed
